Assay [1] deals with T1, MtbIMPDH2ΔCBS (Mycobacterium tuberculosis, UniProt P9WKI7, DEL126-250/R252G). It counts as biochemical.
Assay [2] concerns the target T1, MtbIMPDH2ΔCBS. It counts as biochemical. This is another data set of the same source.

On to `COc1c(C)c2c(c(O)c1C/C=C(\C)Cn1cc(COC[C@H]3O[C@@H](n4cnc5c(N)ncnc54)[C@H](O)[C@@H]3O)nn1)C(=O)OC2` [MAD1, reference compound], for which, at MtbIMPDH2ΔCBS [1], the “mechanism of inhibition vs. IMP” value is reported as 1000 ± 50 (UC), the “mechanism of inhibition vs. NAD^+” value was 1400 ± 100 (UC), the “mechanism of inhibition with respect to IMP” value is listed as “uncompetitive” and the “mechanism of inhibition with respect to NAD+” value is listed as “uncompetitive”.

As for `NC(=O)c1ccc[n+]([C@@H]2O[C@H](COP(=O)([O-])OP(=O)(O)OC[C@H]3O[C@@H](n4cnc5c(N)ncnc54)[C@H](O)[C@@H]3O)[C@@H](O)[C@H]2O)c1` [NAD+], the “Kii (NAD+)” value on MtbIMPDH2ΔCBS [2] was found to be 16 ± 1 mM.

Take `C=C(C)c1cccc(C(C)(C)NC(=O)Nc2ccc(Cl)c(C(=O)N(C)C)c2)c1` [P41]: on MtbIMPDH2ΔCBS [1], the “mechanism of inhibition vs. IMP” value is reported as 9 ± 4 (UC), the “mechanism of inhibition vs. NAD^+” value was 13 ± 4 (NC), the “mechanism of inhibition with respect to IMP” value was “uncompetitive” and the “mechanism of inhibition with respect to NAD+” value is recorded as “noncompetitive”.

`C[C@H](Nc1cccc(Cl)c1Cl)C(=O)Nc1ccc2oc(-c3ccncc3)nc2c1` [Q67]: at MtbIMPDH2ΔCBS [1], the “mechanism of inhibition vs. IMP” value is 17 ± 9 (UC), the “mechanism of inhibition vs. NAD^+” value is reported as 7 ± 7 (C), the “mechanism of inhibition with respect to IMP” value was “uncompetitive” and the “mechanism of inhibition with respect to NAD+” value was “competitive”.

The values above are taken from article PMC4594927 (PLoS ONE, 2015).
